Data set [1] in a line: Dissolution of 2,2′-BPBPA-based BPCCs in PBS (2,2′-BPBPA released, 299 nm). The class given is physicochemical. Particulars: 37° C., 150 rpm, mean n = 2. As to the method:
Dissolution experiment. In a 250 mL beaker was tranfer 100 mL of PBS or FaSSGF.
Subsequently, this solution was allowed to reach 37° C. at 150 rpm. Then, individually ˜10.0 mg of powdered 2,2′-BPBPA-based BPCCs were added to the PBS or FaSSGF solution. Aliquots (1 mL) were taken out at different time points (0, 1, 3, 6, 24, 48, and 72 h) and diluted with PBS or FaSSGF in 5 mL volumetric flasks. An aliquot (1 mL) was taken out before adding the 2,2′-BPBPA-based BPCCs to record the first time point (0 h). The dissolution experiments were performed in duplicate for each 2,2′-BPBPA-based BPCC. The absorbance of the 2,2′-BPBPA released from these materials was assessed at 299 (PBS) and 318 (FaSSGF) nm.
The release of 2,2′-BPBPA from the coordination complexes was assessed in physiological conditions (PBS, pH=7.40 and FaSSGF, pH=1.60). The absorbance of the supernatant was measured at the lambda of maximum absorption to determine the quantity of 2,2′-BPBPA release over time in PBS (λmax=299 nm) and FaSSGF (λmax=318 nm) at 37° C. It was observed that the 2,2′-BPBPA-based BPCCs release from 8 to 13% of 2,2′-BPBPA in neutral conditions (FIG. 160A). […] In acidic conditions, these 2,2′-BPBPA-based BPCCs release from 64 to 90% of 2,2′-BPBPA. The 2,2′-BPBPA-Ca (90%) and 2,2′-BPBPA-Zn (84%) presented the highest release of the ligand contrasted with 2,2′-BPBPA-Mg (64%) in FaSSGF (FIG. 160B). In particular, the 2,2′-BPBPA-Ca collapsed almost completely, indicating the possible ability of this material to degrade once in the acid environment of metastatic cancerous cells and be able to release potential cargo drugs.
Dissolution experiment. In a 250 mL beaker was tranfer 100 mL of PBS. Subsequently, this solution was allowed to reach 37° C. at 150 rpm. Then, individually ˜10.0 mg of powdered 2,2′-BPBPA-based BPCCs were added to the PBS solution. Aliquots (1 mL) were taken out at different time points (0, 1, 3, 6, 24, 48, and 72 h) and diluted with PBS in 5 mL volumetric flasks. An aliquot (1 mL) was taken out before adding the 2,2′-BPBPA-based BPCCs to record the first time point (0 h). The absorbance of the 2,2′-BPBPA released from these materials was assessed at 299 nm. The dissolution experiments were performed in duplicate for each 2,2′-BPBPA-based BPCC. The percentage (%) of 2,2′-BPBPA released in PBS from these complexes is illustrated in Table 30.

Data set [2] deals with human breast cancer MDA-MB-231 cell line. Particulars: previously reported; cited from earlier work.
A short description of data set [3]: Release of letrozole from drug-loaded BPBPA-Ca in FaSSGF. The class given is physicochemical. How it is done: (§1) LET release curve from BPBPA-Ca. The release curve of LET from BPBPA-Ca was determined in FaSSGF. About 100 mL of FaSSGF were placed in a 250-mL beaker and left in constant stirring at 37° C. (150 rpm). To record the first time point (0 h), an aliquot (1 mL) was taken out before adding the drug-loaded BPBPA-Ca. Subsequently, about 20 mg of powdered drug-loaded BPBPA-Ca (experimental) were placed into the FaSSGF solution. After each time point (0, 1, 3, 6, 24, 48, and 72 h), an aliquot (1 mL) was taken out and diluted in a 5 mL volumetric flask. Once the experiment was completed, the absorbance was measured at 238 nm to determine the amount (%) of LET release from the BPBPA-Ca. The release curve of LET (control) in FaSSGF was determined for comparison. This experiment was accomplished in duplicate.
Furthermore, the release of LET from the drug-loaded BPBPA-Ca was investigated in FaSSGF (pH=1.60) at 37° C. The LET released from BPBPA-Ca was quantified by measuring the increase in the LET concentration over time of the supernatant at the lambda max (λmax=238 nm). It was noticed that the drug-loaded BPBPA-Ca reaches a maximum release of LET ([…]) at 24 h (FIG. 91B). […] These findings confirm that BPBPA-Ca can be degraded in acidic conditions and release its cargo (LET) in a controlled and pH-dependent manner.
as §1, with “Release experiment.” for “LET release curve from BPBPA-Ca.”, “performed” for “accomplished”, “duplicate. FIG. 150 depicts the release curve of LET from the BPBPA-Ca channels.” for “duplicate.”

The values below come from patent publication US20250296942A1, “Phosphonate-Based Coordination Complexes and Methods of Preparation and Use Thereof” (University of Puerto Rico, priority 2021, published 2025).

In the case of `O=P(O)(O)c1ccc(-c2ccc(P(=O)(O)O)cn2)nc1` [2,2′-BPBPA, 2,2′-bipyridine-5,5′-bisphosphonic acid], the “% Released (2,2′-BPBPA released in PBS)” value came to 0% in data set [1] (0 h (aliquot before addition)); 88% in data set [1] (1 h); 90% in data set [1] (3 h); 91% in data set [1] (6 h); 97% in data set [1] (24 h); 97% in data set [1] (48 h). Also, in data set [1] (72 h), the “% Released (2,2′-BPBPA released in PBS)” value stood at 97%.
With `N#Cc1ccc(C(c2ccc(C#N)cc2)n2cncn2)cc1` [LET, letrozole], in data set [2], the IC50 – broadly, the concentration needed to halve the response being measured – is more than 200 µM. Also, the “LET released (mean)” value in data set [3] (FaSSGF pH 1.60, 37 °C, 1 h) was determined as 65%; in data set [3] (FaSSGF, 3 h) it was 72%; in data set [3] (FaSSGF, 6 h) it was 75%; in data set [3] (FaSSGF, 24 h), 93%; in data set [3] (FaSSGF, 48 h) it was 94%; in data set [3] (FaSSGF, 72 h), 94%.
